One block for each molecule: values may come before it. The source made the active and inactive calls. The rule behind the calls is not given here.
How the values were obtained:
[1] = Inhibition of N-type calcium channel in human IMR-32 cells assessed as intracellular calcium concentration by FLIPR; format: cell-based
[2] = molecular target: Voltage-gated inwardly rectifying potassium channel KCNH2 (Homo sapiens, UniProt Q12809); assay: Inhibition of human ERG expressed in CHO cells by Rb efflux assay
[3] = Aqueous solubility in Japanese Pharmacopoeia at pH 1.2; format: physicochemical; settings: aqueous Japanese Pharmacopoeia medium, pH 1.2, pH 1.2
[4] = Aqueous solubility in Japanese Pharmacopoeia at pH 6.8; format: physicochemical; settings: aqueous Japanese Pharmacopoeia medium, pH 6.8, pH 6.8
hERG (KCNH2) = hERG (KCNH2) (Homo sapiens, UniProt Q12809); assay: Inhibition of human ERG expressed in CHO cells at 10 uM by Rb efflux assay; format: cell-based; settings: CHO cells expressing human ERG
IMR-32 = assay: Selectivity ratio of IC50 for human ERG to IC50 for N-type calcium channel in human IMR-32 cells; format: cell-based
Cytochrome P450 1A2 = molecular target: T1, Cytochrome P450 1A2 (Homo sapiens, UniProt P05177); assay: Inhibition of human recombinant CYP1A2 after 15 mins
T1 sequence (P05177 whole entry): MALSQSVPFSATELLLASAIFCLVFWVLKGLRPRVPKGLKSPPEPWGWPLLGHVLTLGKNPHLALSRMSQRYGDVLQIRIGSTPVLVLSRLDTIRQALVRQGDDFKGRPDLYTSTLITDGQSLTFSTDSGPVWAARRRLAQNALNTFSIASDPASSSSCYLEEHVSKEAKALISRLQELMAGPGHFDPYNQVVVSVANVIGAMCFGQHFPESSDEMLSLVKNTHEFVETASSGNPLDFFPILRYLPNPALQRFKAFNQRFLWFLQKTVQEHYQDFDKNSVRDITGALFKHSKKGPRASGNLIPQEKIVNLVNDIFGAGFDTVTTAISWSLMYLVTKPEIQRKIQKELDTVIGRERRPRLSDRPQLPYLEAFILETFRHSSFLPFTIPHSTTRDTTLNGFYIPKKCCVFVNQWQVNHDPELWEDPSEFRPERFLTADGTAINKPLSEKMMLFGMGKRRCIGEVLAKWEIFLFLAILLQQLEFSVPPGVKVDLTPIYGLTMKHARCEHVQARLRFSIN

Cytochrome P450 2C9 = Cytochrome P450 2C9 (Homo sapiens, UniProt P11712); assay: Inhibition of human recombinant CYP2C9 after 45 mins
Cytochrome P450 2C19 = Cytochrome P450 2C19 (Homo sapiens, UniProt P33261); assay: Inhibition of human recombinant CYP2C19 after 30 mins
Cytochrome P450 2D6 = Cytochrome P450 2D6 (Homo sapiens, UniProt P10635); assay: Inhibition of human recombinant CYP2D6 after 30 mins
CYP3A4 = CYP3A4 (Homo sapiens, UniProt P08684); assay: Inhibition of CYP3A4 in human liver microsomes assessed as residual activity assessed as residual activity using midazolam as substrate preincubated for 30 mins by LC/MS/MS analysis; settings: probe midazolam
Rattus norvegicus [5] = assay: Antiallodynic activity in Sprague-Dawley rat spinal nerve ligation model of neuropathic pain assessed as reduction in mechanical allodynia at 3 to 30 mg/kg, po; format: functional, organism-based
Rattus norvegicus [6] = assay: Antiallodynic activity in Sprague-Dawley rat spinal nerve ligation model of neuropathic pain assessed as maximal reduction in mechanical allodynia at 30 mg/kg, po; format: functional, organism-based; design: dose 30 mg/kg
[7] = Inhibition of N-type calcium channel in human IMR-32 cells under holding potential at -70 mV inactivated state by whole cell patch-clamp electrophysiological method
[8] = Inhibition of N-type calcium channel in human IMR-32 cells under holding potential at -90 mV state-biased condition by whole cell patch-clamp electrophysiological method

Voltage-gated inwardly rectifying potassium channel KCNH2, sequence (Q12809 whole entry): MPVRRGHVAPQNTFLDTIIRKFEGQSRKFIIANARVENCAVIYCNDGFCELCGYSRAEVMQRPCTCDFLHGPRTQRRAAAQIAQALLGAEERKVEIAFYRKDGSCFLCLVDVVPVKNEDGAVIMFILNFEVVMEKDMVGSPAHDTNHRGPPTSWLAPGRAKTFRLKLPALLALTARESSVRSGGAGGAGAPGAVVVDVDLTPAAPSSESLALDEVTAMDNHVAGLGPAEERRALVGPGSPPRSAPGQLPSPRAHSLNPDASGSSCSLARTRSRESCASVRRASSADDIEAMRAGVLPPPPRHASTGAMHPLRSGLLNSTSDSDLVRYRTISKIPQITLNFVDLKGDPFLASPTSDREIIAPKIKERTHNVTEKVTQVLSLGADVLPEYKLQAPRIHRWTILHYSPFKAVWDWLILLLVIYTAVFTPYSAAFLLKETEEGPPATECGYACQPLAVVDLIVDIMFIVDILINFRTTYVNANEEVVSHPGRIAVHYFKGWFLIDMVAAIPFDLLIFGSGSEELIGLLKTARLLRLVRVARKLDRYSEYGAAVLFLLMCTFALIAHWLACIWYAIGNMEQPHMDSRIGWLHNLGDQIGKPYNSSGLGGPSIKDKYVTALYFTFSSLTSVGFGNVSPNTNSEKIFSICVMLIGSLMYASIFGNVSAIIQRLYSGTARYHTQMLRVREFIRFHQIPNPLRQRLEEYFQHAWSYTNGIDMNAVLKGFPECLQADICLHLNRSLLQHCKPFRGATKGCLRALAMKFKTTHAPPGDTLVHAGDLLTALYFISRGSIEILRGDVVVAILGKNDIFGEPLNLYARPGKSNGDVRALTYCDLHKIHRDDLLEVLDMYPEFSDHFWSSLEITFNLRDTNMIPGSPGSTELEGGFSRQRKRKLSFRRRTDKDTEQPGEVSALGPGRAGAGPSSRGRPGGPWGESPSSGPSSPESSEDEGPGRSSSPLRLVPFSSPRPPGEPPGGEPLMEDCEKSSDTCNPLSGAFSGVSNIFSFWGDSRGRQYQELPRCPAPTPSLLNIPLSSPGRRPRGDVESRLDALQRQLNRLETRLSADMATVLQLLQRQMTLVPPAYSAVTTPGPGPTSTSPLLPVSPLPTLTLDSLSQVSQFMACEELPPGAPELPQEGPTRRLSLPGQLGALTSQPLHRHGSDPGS
hERG (KCNH2), sequence (Q12809 whole entry): as above
CYP3A4, sequence (P08684 whole entry): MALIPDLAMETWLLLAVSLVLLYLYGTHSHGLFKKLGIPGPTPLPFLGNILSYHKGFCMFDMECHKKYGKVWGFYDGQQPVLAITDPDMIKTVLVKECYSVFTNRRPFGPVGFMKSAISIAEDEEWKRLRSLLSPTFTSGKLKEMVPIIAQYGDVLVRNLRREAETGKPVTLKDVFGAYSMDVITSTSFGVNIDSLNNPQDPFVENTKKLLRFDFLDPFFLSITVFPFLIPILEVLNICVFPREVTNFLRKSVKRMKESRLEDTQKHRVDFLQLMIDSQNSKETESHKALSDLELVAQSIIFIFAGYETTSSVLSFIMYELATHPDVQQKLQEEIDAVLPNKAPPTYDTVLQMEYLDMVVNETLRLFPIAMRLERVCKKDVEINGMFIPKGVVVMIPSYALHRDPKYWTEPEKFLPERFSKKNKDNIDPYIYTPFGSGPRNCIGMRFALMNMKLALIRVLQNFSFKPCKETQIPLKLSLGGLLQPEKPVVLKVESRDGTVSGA
Cytochrome P450 2D6, sequence (P10635 whole entry): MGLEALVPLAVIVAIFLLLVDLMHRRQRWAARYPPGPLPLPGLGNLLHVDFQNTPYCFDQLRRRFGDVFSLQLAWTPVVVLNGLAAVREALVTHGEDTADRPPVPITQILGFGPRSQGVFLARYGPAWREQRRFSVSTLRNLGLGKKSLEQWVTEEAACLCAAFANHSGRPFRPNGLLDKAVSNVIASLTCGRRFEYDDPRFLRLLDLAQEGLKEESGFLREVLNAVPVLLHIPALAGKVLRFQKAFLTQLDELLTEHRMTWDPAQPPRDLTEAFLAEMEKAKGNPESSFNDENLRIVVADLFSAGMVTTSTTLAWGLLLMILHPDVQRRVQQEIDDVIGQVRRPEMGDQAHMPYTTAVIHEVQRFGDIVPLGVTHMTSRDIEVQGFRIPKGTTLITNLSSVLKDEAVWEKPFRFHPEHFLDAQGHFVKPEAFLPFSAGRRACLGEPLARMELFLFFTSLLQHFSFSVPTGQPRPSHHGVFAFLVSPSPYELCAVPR
Cytochrome P450 2C9, sequence (P11712 whole entry): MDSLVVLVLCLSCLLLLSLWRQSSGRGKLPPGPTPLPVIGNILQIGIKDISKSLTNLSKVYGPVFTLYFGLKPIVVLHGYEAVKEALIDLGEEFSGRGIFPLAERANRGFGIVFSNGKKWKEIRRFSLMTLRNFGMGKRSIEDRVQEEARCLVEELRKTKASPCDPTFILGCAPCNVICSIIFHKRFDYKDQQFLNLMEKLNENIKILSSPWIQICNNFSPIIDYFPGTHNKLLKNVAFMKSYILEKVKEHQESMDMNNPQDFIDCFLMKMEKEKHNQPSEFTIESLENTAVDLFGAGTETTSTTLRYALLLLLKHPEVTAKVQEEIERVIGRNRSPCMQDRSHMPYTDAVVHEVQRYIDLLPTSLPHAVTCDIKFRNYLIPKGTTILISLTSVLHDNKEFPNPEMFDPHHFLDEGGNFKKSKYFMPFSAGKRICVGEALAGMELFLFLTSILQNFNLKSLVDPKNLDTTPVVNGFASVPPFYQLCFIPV
Cytochrome P450 2C19, sequence (P33261 whole entry): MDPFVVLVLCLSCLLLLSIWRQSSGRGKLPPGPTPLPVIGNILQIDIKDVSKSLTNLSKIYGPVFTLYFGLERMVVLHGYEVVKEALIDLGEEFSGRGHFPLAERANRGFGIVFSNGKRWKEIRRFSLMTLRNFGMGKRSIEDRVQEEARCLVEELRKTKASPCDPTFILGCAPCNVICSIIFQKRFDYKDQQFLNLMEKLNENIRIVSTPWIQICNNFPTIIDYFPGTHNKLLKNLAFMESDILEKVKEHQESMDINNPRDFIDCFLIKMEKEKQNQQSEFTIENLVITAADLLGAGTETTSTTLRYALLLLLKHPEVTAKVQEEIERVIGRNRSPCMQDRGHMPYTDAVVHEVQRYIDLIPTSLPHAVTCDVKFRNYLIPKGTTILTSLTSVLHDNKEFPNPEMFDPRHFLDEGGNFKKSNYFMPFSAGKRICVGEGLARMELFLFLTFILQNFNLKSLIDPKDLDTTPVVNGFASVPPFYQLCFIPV

SMILES: COc1cc(CN2CCN(CCCCCC(c3ccc(F)cc3)c3ccc(F)cc3)CC2)cc(OC)c1OC
IC50 [1]: 1.1 µM
IC50 [2]: 3.4 µM
solubility [3]: > 100 µM
solubility [4]: < 1 µM

SMILES: O=C(CNCCc1ccccc1)N1CCc2ccccc2C1C1CCCCC1 (stereo unspecified)
IC50 [1]: 1.3 µM
inhibition at 10 µM (hERG (KCNH2)): 57.8%

SMILES: COc1c(OC(C)(C)C)cc(CN2CC(=O)N(CCCCCC(c3ccc(F)cc3)c3ccc(F)cc3)CC2=O)cc1OC(C)(C)C
IC50 [1]: 0.43 µM
IC50 [2]: > 100 µM
solubility [3]: < 1 µM
solubility [4]: < 1 µM

SMILES: COC(=O)c1ccc(CCNCC(=O)N2CCc3ccccc3C2C2CCCCC2)cc1 (stereo unspecified)
IC50 [1]: 2.3 µM
inhibition at 10 µM (hERG (KCNH2)): 71.7%

SMILES: O=C(O)c1ccc(CCNCC(=O)N2CCc3ccccc3C2C2CCCCC2)cc1 (stereo unspecified)
IC50 [1]: > 10 µM
inhibition at 10 µM (hERG (KCNH2)): 9%

SMILES: COc1ccccc1CCNCC(=O)N1CCc2ccccc2C1C1CCCCC1 (stereo unspecified)
IC50 [1]: 0.6 µM
solubility [3]: > 100 µM
solubility [4]: > 100 µM
IC50 (Cytochrome P450 1A2): 26 µM
IC50 (Cytochrome P450 2C9): 4.8 µM
IC50 (Cytochrome P450 2C19): 3 µM
IC50 (Cytochrome P450 2D6): 0.37 µM
activity at 30 min (CYP3A4): 53%

SMILES: O=C(CNCCc1c(Cl)cccc1Cl)N1CCc2ccccc2C1C1CCCCC1 (stereo unspecified)
IC50 [1]: 2.4 µM

SMILES: O=C(CNCCc1ccccc1O)N1CCc2ccccc2C1C1CCCCC1 (stereo unspecified)
IC50 [1]: 3 µM
inhibition at 10 µM (hERG (KCNH2)): 54.4%

Continued, in another order:

IC50 [1]: 2.6 µM
SMILES: O=C(CNCC1(O)CCCCCC1)N1CCc2ccccc2C1C1CCCCC1 (stereo unspecified)
IC50 [2]: 50.1 µM
Ratio IC50 (IMR-32): 19.6

IC50 [1]: 1.5 µM
SMILES: O=C(CNCC1(O)CCCCC1)N1CCc2ccccc2[C@H]1C1CCCCC1

IC50 [1]: 1.7 µM
SMILES: O=C(CNCCC1(O)CCCCC1)N1CCc2ccccc2C1C1CCCCC1 (stereo unspecified)

IC50 [1]: 1 µM
IC50 [7]: 1.7 µM
IC50 [8]: 12.7 µM
SMILES: O=C(CNCC1(O)CCCCC1)N1CCc2ccccc2[C@@H]1C1CCCCC1
inhibition (Rattus norvegicus [5]): Active
inhibition (Rattus norvegicus [6]): Active

IC50 [1]: 2.8 µM
SMILES: O=C(CNCC1(O)CCCC1)N1CCc2ccccc2C1C1CCCCC1 (stereo unspecified)
IC50 [2]: 78.6 µM
Ratio IC50 (IMR-32): 28.1

IC50 [1]: 1.3 µM
SMILES: O=C(CNCC1CCCCC1)N1CCc2ccccc2C1C1CCCCC1 (stereo unspecified)
IC50 [2]: 26 µM
Ratio IC50 (IMR-32): 20

From ChEMBL document CHEMBL3351320, “Discovery of novel tetrahydroisoquinoline derivatives as orally active N-type calcium channel blockers with high selectivity for hERG potassium channels” (Bioorg Med Chem, 2014)
